Source: patent US11274100B2, “EP300/CREBBP inhibitor” (Daiichi Sankyo Company, Limited, priority 2017, dated 2022)
pIC50: −log10 of the molar value.

Columns and labels:
TE-8 cells = test: Cell growth inhibitory activity, TE-8 cells (Test Example 3); assay type: cell-based; conditions: Homo sapiens, 72 h, cultured for 3 days, CellTiter-Glo
Description: (§1) [Test Example 3] Evaluation of Cell Growth Inhibitory Activity
(§2) As a culture medium for each cell, a 10% FBS supplemented RPMI 1640 medium (for LK2 cells and TE-8 cells derived from human esophageal cancer) was used. LK2 cells were purchased from Human Science Research Resources Bank, and TE-8 cells were purchased from Riken Cell Bank. The compound of each of Examples 1 to 108b was prepared by dilution with Freedom EVO 150 (Tecan Trading AG) (4-fold diluted, 10 stages, 10 mM to 38 nM). The resultant was added to respective wells of a 384-well plate in an amount of 40 nL/well using Echo 555 (Labcyte Inc.). The LK2 or TE-8 cells were seeded in the plate at 400 cells/40 μL/well (day 0), and were cultured for 3 days. On the day of addition of the compound (day 0) and 3 days after the addition of the compound (day 3), an ATP measurement reagent of CellTiter-Glo (registered trademark) 2.0 Assay (Promega Corporation, #G9242) was added to each well in an amount of 10 μL/well, and the amount of luminescence of each well was measured using EnVision. Based on the amount of luminescence (C0) on the day of the addition of the compound, and the amounts of luminescence of a compound non-addition group (C3) and a compound addition group (T3) obtained after the 3-day culture of the compound, a cell survival rate was calculated in accordance with the following expression: Cell survival rate (%)=(T3−C0)/(C3−C0)×100
(§3) A concentration (GI50 value) of each compound at which the growth of the TE-8 or LK-2 cells was inhibited by 50% was calculated by semilogarithmically plotting the cell survival rate at each concentration and the compound concentration.

EP300 = EP300 (Homo sapiens, UniProt Q09472); test: Histone acetyltransferase inhibitory activity against EP300 (Test Example 1); assay type: biochemical; conditions: 50 ng/mL EP300, 2 μM Acetyl-CoA, 100 nM Histone H4(1-25)-GSGSK (Biotin), 28° C. for 1 hour
EP300, sequence (Q09472 whole entry): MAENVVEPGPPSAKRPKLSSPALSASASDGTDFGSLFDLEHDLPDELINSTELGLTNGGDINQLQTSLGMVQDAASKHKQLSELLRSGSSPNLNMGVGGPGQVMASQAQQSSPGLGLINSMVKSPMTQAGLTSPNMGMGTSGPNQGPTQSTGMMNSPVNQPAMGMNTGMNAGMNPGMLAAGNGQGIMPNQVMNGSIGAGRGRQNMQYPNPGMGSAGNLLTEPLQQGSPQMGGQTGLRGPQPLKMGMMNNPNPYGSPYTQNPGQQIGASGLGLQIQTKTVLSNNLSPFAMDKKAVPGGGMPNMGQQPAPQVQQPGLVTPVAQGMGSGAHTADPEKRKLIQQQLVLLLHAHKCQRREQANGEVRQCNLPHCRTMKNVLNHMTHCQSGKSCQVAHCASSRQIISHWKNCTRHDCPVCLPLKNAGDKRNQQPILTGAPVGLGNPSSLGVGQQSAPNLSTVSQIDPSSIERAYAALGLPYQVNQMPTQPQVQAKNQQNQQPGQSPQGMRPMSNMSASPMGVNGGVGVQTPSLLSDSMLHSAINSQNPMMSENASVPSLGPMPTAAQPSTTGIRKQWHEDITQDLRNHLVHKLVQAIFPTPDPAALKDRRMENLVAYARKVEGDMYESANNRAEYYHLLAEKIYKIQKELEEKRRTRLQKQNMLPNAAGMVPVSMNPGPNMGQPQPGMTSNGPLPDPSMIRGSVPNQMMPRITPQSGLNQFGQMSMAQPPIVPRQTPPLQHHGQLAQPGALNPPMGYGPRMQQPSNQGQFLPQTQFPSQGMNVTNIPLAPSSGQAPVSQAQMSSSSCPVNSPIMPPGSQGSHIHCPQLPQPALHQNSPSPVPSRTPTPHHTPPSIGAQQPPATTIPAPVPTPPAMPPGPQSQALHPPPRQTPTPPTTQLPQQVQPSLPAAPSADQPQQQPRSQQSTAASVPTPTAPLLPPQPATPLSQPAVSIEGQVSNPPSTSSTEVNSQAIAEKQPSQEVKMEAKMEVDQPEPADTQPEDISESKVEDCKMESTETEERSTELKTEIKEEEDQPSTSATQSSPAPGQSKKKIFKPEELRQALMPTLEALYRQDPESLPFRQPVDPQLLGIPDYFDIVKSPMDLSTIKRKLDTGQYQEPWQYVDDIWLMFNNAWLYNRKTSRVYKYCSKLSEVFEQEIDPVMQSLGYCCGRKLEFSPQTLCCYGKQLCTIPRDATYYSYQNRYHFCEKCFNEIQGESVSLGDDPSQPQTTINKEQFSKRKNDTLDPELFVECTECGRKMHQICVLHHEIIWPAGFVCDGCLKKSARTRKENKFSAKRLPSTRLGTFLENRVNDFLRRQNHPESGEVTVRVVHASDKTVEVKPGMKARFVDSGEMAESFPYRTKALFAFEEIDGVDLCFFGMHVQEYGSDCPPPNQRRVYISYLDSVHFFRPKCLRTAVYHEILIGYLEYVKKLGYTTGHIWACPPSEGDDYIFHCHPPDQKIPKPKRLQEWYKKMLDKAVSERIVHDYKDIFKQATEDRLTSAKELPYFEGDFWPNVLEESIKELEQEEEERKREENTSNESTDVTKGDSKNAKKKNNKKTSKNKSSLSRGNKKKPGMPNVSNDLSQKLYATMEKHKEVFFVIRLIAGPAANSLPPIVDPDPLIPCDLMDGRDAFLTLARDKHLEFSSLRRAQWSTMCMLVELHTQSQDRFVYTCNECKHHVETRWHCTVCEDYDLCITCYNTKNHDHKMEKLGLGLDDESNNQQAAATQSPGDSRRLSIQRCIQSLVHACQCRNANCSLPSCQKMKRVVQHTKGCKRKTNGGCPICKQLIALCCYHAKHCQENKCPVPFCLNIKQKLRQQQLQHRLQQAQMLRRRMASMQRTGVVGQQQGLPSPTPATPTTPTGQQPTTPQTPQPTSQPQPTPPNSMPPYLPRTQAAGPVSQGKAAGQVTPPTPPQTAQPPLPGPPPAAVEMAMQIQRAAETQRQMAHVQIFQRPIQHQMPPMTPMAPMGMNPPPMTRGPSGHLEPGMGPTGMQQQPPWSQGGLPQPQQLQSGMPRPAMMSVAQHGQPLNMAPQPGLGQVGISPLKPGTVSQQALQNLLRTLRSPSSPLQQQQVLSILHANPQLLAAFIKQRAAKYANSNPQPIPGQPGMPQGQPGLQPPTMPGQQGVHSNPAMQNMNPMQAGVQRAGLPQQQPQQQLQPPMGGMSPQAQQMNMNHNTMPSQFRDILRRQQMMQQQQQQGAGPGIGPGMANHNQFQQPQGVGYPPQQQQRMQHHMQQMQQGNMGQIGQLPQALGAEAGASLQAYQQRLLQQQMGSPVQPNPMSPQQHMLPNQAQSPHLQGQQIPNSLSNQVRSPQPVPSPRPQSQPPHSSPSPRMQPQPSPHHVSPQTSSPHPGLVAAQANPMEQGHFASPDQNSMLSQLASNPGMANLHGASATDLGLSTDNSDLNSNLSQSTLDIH
Procedure, shortened: (§4)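 Enzyme (50 ng/mL EP300 or 125 ng/mL CREBBP) incubated 1 h at 28° C with 2 μM acetyl-CoA, 100 nM biotinylated histone H4(1-25) peptide and 10 to 0.0006 μM compound in pH 8.0 Tris buffer with 330 nM trichostatin A, 1% DMSO. Reaction stopped with Lys-CoA; acetylation read by TR-FRET (Eu-anti pan-Ac/Sta-ULight) after overnight room-temperature incubation.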

LK2 cells = test: Cell growth inhibitory activity, LK2 cells (Test Example 3); assay type: cell-based; conditions: Homo sapiens, LK-2, 72 h, cultured for 3 days, CellTiter-Glo
Description: as §1, §2, §3

CREBBP = CREBBP (Homo sapiens, UniProt Q92793); test: Histone acetyltransferase inhibitory activity against CREBBP (Test Example 1); assay type: biochemical; conditions: 125 ng/mL CREBBP, 2 μM Acetyl-CoA, 100 nM Histone H4(1-25)-GSGSK (Biotin), 28° C. for 1 hour
CREBBP, sequence (Q92793 whole entry): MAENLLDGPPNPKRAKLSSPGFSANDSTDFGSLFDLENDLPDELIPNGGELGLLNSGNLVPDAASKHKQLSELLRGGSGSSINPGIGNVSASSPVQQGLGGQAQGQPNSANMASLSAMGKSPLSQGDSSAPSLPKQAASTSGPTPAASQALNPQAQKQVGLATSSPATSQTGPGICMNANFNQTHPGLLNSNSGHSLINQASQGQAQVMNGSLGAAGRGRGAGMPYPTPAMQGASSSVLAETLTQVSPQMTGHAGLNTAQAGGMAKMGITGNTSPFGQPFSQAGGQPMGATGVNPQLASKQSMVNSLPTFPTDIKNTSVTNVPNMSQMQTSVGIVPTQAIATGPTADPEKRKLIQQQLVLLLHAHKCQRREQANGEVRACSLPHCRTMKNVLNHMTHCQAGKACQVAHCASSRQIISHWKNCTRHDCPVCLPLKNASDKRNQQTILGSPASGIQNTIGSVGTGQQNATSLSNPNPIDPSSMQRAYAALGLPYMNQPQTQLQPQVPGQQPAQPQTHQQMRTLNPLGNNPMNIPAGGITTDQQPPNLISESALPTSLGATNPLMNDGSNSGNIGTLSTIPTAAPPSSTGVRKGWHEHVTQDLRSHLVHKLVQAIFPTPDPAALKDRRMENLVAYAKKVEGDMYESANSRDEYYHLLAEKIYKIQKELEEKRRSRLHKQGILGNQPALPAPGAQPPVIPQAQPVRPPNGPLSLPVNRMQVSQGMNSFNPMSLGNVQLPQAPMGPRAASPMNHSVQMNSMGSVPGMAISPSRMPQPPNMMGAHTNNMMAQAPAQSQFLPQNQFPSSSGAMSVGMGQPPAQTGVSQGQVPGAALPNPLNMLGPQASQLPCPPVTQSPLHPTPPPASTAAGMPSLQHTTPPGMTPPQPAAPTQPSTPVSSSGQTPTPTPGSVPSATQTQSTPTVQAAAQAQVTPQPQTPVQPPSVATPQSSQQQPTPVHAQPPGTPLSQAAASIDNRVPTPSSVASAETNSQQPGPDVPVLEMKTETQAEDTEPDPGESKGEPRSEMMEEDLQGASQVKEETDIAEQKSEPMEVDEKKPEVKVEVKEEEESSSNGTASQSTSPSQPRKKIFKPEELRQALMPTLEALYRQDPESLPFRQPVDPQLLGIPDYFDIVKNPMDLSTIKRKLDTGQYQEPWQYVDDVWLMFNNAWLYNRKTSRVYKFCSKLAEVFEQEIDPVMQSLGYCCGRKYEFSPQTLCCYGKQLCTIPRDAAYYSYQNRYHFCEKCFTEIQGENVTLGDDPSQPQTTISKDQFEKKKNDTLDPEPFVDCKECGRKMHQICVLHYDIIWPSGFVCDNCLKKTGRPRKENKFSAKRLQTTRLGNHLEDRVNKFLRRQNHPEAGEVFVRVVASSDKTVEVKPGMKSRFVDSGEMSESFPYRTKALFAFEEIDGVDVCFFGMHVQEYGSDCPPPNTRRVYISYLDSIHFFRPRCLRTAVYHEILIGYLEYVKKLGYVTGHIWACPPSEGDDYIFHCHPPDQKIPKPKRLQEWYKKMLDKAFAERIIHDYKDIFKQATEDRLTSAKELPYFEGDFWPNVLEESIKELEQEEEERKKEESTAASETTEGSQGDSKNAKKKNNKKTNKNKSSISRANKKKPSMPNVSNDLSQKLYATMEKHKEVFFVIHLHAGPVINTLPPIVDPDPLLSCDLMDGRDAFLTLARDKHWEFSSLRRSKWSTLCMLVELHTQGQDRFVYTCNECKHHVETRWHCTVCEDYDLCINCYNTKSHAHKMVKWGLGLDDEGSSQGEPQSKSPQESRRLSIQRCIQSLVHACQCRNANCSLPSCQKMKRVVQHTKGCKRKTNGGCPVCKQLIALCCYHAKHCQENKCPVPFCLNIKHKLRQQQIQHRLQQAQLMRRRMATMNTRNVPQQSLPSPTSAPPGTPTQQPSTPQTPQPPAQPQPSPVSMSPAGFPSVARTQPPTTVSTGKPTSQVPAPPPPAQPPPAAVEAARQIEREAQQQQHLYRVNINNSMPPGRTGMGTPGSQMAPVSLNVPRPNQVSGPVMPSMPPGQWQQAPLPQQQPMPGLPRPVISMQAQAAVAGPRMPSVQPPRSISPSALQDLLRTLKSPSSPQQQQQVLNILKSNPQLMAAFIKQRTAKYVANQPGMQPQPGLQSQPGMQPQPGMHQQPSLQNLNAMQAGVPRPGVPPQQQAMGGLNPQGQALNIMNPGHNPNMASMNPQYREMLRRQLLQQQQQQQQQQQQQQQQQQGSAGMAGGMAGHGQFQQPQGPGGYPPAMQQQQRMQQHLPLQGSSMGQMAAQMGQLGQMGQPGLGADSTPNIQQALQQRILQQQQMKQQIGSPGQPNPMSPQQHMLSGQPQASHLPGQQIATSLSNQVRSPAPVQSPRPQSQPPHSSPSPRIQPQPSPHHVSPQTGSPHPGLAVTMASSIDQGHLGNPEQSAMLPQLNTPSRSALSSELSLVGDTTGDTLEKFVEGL
Procedure, shortened: as §4

H3K27Ac = test: Intracellular H3K27Ac inhibitory activity in LK2 cells (Test Example 2); assay type: cell-based; conditions: Homo sapiens, LK-2, cultured with compound for 3 hours, read-out: Test Example 2 H3K27Ac Inhibition (LK2) IC50
Procedure, shortened: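 Human squamous lung cancer LK2 cells (40000/well) cultured overnight at 37 °C, 5% CO2 before treatment. After paraformaldehyde fixation, peroxide quench and blocking, H3K27 acetylation detected with anti-acetyl-H3K27 rabbit mAb (4 °C overnight) and HRP secondary; chemiluminescent read-out.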

SMILES | pIC50 (EP300) | pIC50 (CREBBP) | pIC50 (H3K27Ac) | GI50 (TE-8 cells) [µM] | GI50 (LK2 cells) [µM]
COc1c(F)cc(C2(C(=O)N3C[C@H](F)C[C@@H]3C(=O)Nc3ccc4[nH]ncc4n3)CCC(F)(F)CC2)cc1F [Example 62] | 7.12 | 7.06 | 6.85 | 0.88 | 0.489
COc1ccc(C2(C(=O)N(C)[C@@H](C(=O)Nc3ccc4[nH]ncc4n3)[C@@H](C)O)CCC(F)(F)CC2)cc1 [Example 78, 4,4-Difluoro-N-[(2R,3R)-3-hydroxy-1-oxo-1-(1H-pyrazolo[4,3-b]pyridin-5-ylamino)butan-2-yl]-1-(4-methoxyphenyl)-N-methylcyclohexanecarboxamide] | 6.59 | 6.49 | 6.11 | 4.63 | 2.15
COc1ccc(C2(C(=O)N(C)[C@@H](C(=O)Nc3ccc4[nH]ncc4n3)[C@H](C)O)CCC(F)(F)CC2)cc1 [Example 80, 4,4-Difluoro-N-[(2R,3S)-3-hydroxy-1-oxo-1-(1H-pyrazolo[4,3-b]pyridin-5-ylamino)butan-2-yl]-1-(4-methoxyphenyl)-N-methylcyclohexanecarboxamide] | 7.11 | 7.04 | 7.77 | 0.277 | 0.141
COc1ccc(C2(C(=O)N(C)[C@H](CCO)C(=O)Nc3ccc4[nH]ncc4n3)CCC(F)(F)CC2)cc1 [Example 69, 4,4-Difluoro-N-[(2R)-4-hydroxy-1-oxo-1-(1H-pyrazolo[4,3-b]pyridin-5-ylamino)butan-2-yl]-1-(4-methoxyphenyl)-N-methylcyclohexanecarboxamide] | 6.80 | 6.62 | 6.40 | 4.19 | 3.12
COc1ccc(C2(C(=O)N3C[C@H](F)[C@@H](O)[C@@H]3C(=O)Nc3ccc4[nH]ncc4n3)CCC(F)(F)CC2)cc1 [Example 38] | 7.24 | 6.96 | 7.42 | 0.176 | 0.117
COc1ccc(C2(C(=O)N3CS(=O)(=O)C[C@@H]3C(=O)Nc3ccc4[nH]ccc4n3)CCCC2)cc1 [Example 65, (4S)-3-{[1-(4-Methoxyphenyl)cyclopentyl]carbonyl}-N-(1H-pyrrolo[3,2-b]pyridin-5-yl)-1,3-thiazolidine-4-carboxamide 1,1-dioxide] | 7.74 | 7.43 | 8.05 | 0.151 | 0.0792
COc1ccc(C(C)(C)C(=O)N2C[C@H](F)C[C@@H]2C(=O)Nc2ccc3[nH]ncc3n2)cc1 [Example 47] | 7.89 | 7.23 | 7.11 | 1.14 | 0.585
COc1ccc(C2(C(=O)N3C[C@H](F)C[C@@H]3C(=O)Nc3cc4ccccn4n3)CCCCC2)cc1 [Example 70, (4R)-4-Fluoro-1-{[1-(4-methoxyphenyl)cyclohexyl]carbonyl}-N-pyrazolo[1,5-a]pyridin-2-yl-D-prolinamide] | 7.22 | 7.28 | 7.03 | 1.07 | 0.729

Further lines, with some results ahead:

pIC50 (EP300) | pIC50 (CREBBP) | pIC50 (H3K27Ac) | SMILES | GI50 (TE-8 cells) [µM] | GI50 (LK2 cells) [µM]
7.48 | 7.21 | 7.72 | CC(=O)c1ccc(C2(C(=O)N3C[C@H](F)C[C@@H]3C(=O)Nc3ccc4[nH]ncc4n3)CCCCC2)cc1 [Example 83, (4R)-1-{[1-(4-Acetylphenyl)cyclohexyl]carbonyl}-4-fluoro-N-1H-pyrazolo[4,3-b]pyridin-5-yl-D-prolinamide] | 0.151 | 0.203
7.92 | 7.68 | 7.89 | O=C(Nc1ccc2[nH]ncc2n1)[C@H]1C[C@@H](F)CN1C(=O)C1(c2ccc(O)cc2)CCCCC1 [Example 82, (4R)-4-Fluoro-1-{[1-(4-hydroxyphenyl)cyclohexyl]carbonyl}-N-1H-pyrazolo[4,3-b]pyridin-5-yl-D-prolinamide] | 0.0893 | 0.0751
6.96 | 6.52 | 6.91 | O=C(Nc1ccc2[nH]ncc2n1)[C@H]1C[C@@H](F)CN1C(=O)C1(c2ccc(-c3ccccc3)c(F)c2)CCC(F)(F)CC1 [Example 94] | 0.586 | 0.625
7.51 | 7.28 | 7.54 | O=C(Nc1ccc2[nH]ncc2n1)[C@H]1C[C@@H](F)CN1C(=O)C1(c2ccc(OCF)c(F)c2)CCC(F)(F)CC1 [Example 85, (4R)-1-({4,4-Difluoro-1-[3-fluoro-4-(fluoromethoxy)phenyl]cyclohexyl}carbonyl)-4-fluoro-N-1H-pyrazolo[4,3-b]pyridin-5-yl-D-prolinamide] | 0.412 | 0.206
5.61 | 5.66 | < 6.00 | COCO[C@@H]1CN(C(=O)C2(c3ccc(OC)cc3)CCC(F)(F)CC2)[C@H]1C(=O)Nc1ccc2[nH]ncc2n1 [Example 96, (2R,3R)-1-{[4,4-Difluoro-1-(4-methoxyphenyl)cyclohexyl]carbonyl}-3-(methoxymethoxy)-N-(1H-pyrazolo[4,3-b]pyridin-5-yl)azetidine-2-carboxamide] | > 10 | > 10
6.92 | 6.63 | 6.62 | CC(=O)Nc1ccc(C2(C(=O)N3C[C@H](F)C[C@@H]3C(=O)Nc3ccc4[nH]ncc4n3)CCC(F)(F)CC2)cc1 [Example 101, (4R)-1-({1-[4-(acetylamino)phenyl]-4,4-difluorocyclohexyl}carbonyl)-4-fluoro-N-1H-pyrazolo[4,3-b]pyridin-5-yl-D-prolinamide] | 1.05 | 0.707
7.59 | 7.24 | 6.86 | O=C(Nc1ccc2[nH]ncc2n1)[C@H]1C[C@@H](F)CN1C(=O)C1(c2ccc(NS(=O)(=O)c3ccccc3)cc2)CCC(F)(F)CC1 [Example 104, (4R)-1-[(4,4-Difluoro-1-{4-[(phenylsulfonyl)amino]phenyl}cyclohexyl)carbonyl]-4-fluoro-N-1H-pyrazolo[4,3-b]pyridin-5-yl-D-prolinamide] | 0.656 | 0.512
7.66 | 7.28 | 7.29 | [2H]C([2H])([2H])Oc1ccc(C2(C(=O)N3C[C@H](F)C[C@@H]3C(=O)Nc3ccc4[nH]ncc4n3)CCC(F)(F)CC2)cc1 [Example 92, (4R)-1-[(4,4-Difluoro-1-{4-[(^2H3)methyloxy]phenyl}cyclohexyl)carbonyl]-4-fluoro-N-1H-pyrazolo[4,3-b]pyridin-5-yl-D-prolinamide] | 0.308 | 0.195
7.12 | 6.69 | 7.21 | CC(C)(O)c1ccc(C2(C(=O)N3C[C@H](F)C[C@@H]3C(=O)Nc3ccc4[nH]ncc4n3)CCC(F)(F)CC2)cc1 [Example 98, (4R)-1-({4,4-Difluoro-1-[4-(2-hydroxypropan-2-yl)phenyl]cyclohexyl}carbonyl)-4-fluoro-N-1H-pyrazolo[4,3-b]pyridin-5-yl-D-prolinamide] | 0.331 | 0.267
7.39 | 7.11 | 7.47 | CNCc1cc2nc(NC(=O)[C@H]3C[C@@H](F)CN3C(=O)C3(c4ccc(OC(F)F)cc4)CCC(F)(F)CC3)ccc2[nH]1 [Example 103, (4R)-1-({1-[4-(Difluoromethoxy)phenyl]-4,4-difluorocyclohexyl}carbonyl)-4-fluoro-N-{2-[(methylamino)methyl]-1H-pyrrolo[3,2-b]pyridin-5-yl}-D-prolinamide] | 0.304 | 0.184
7.17 | 7.02 | 6.61 | COc1ccc(C2(C(=O)N3C[C@H](F)C[C@@H]3C(=O)Nc3ccc4[nH]ncc4c3F)CCC(F)(F)CC2)cc1 [Example 100] | 1.37 | 0.66
